# Experiments:
# [1] = Pharmacokinetics of orally administered squalamine (ENT-01) in Stage 1; assay type: in vivo, human; settings: oral, active zwitterion
# Procedure: PK data were collected on the 10 patients enrolled in Stage 1 and 10 patients enrolled in Stage 2 to determine the extent of systemic absorption. In Stage 1, PK data were obtained at each visit, pre-medication, at 1, 2, 4, 8 and 24 hours (Table 10). In Stage 2, PK was measured on days 1 and 6 of the randomization period pre-medication, at 1, 2, 4 and 8 hours (Table 11).
# The mean Cmax, Tmax and T1/2 and AUC of the squalamine ion following squalamine (ENT-01) oral dosing for Stage 1 patients. The PK analyses are only approximate, as the lower limit of the validated concentration range was 10 ng/ml; most of the measured concentrations fell below that value. The mean Cmax, Tmax and T1/2 and AUC of the squalamine ion following squalamine (ENT-01) oral dosing for Stage 2 patients. The PK analyses are only approximate, as the lower limit of the validated concentration range was 0.5 ng/ml.
# mouse models of PD = settings: oral; mice with constipation due to overexpression of human αS (West et al, in preparation); cited from earlier work
# [2] = tested on: IPANs (intrinsic primary afferent neuron); settings: perfusion through lumen of isolated bowel segment, PD mouse model; cited from earlier work
# [3] = systemic administration; into the duodenum through the biliary tract (in mice); cited from earlier work
# [4] = in vivo; cited from earlier work
# [5] = prior studies, cited from earlier work
# [6] = cited from earlier work
Structure (SMILES),systemic absorption [1],gastro-intestinal motility (mouse models of PD),effect on IPANs of the ENS [2],clearance and excretion [3],known pharmacological effects [4],gastrointestinal motility after intravenous administration ([5]; intravenous),"systemic blood levels, intravenous versus orally administered [5]","well tolerated intravenous dose ([6]; dilactate salt, single and repeat intravenous administration, Phase 1 and Phase 2 trials)","drug related GI toxicology ([6]; published clinical trials, systemic administration)"
CC(C)[C@@H](CC[C@@H](C)[C@H]1CC[C@H]2[C@@H]3[C@H](O)C[C@H]4C[C@@H](NCCCNCCCCN)CC[C@]4(C)[C@H]3CC[C@]12C)OS(=O)(=O)O [squalamine],not significantly absorbed into the systemic circulation,stimulates gastro-intestinal motility,excitation of IPANs,cleared by the liver and excreted as the intact molecule,"nausea, vomiting and/or reduced blood pressure",not associated with increased gastrointestinal motility,one thousand-fold greater,at least 300 mg/m^2,has not been reported
"CC(C)[C@@H](CC[C@@H](C)[C@H]1CC[C@H]2[C@@H]3[C@H](O)C[C@H]4C[C@@H](NCCCNCCCCNCCCN)CC[C@]4(C)[C@H]3CC[C@]12C)OS(=O)(=O)O [Aminosterol 1436, trodusquemine]",,,,,reduction in food intake and weight loss,,,,

# Source: patent US20200038415A1, “AMINOSTEROL COMPOSITIONS AND METHODS OF USING THE SAME FOR TREATING ERECTILE DYSFUNCTION” (Enterin, Inc., priority 2018, published 2020)
